Columns and labels:
Assay type in all cases: in vivo, mouse
[1] = test system: NOD mice; assay: Side effects of prodigiosin in NOD mice (body weight, mortality, pathological test of liver, kidney, lung)
Experimental: Because of diabetes, NOD mice have their weight decrease and come to die in 2 weeks after symptoms of diabetes.
FIG. 7 illustrates that the prodigiosin has no side effect.
In NOD mice receiving prodigiosin from 8 weeks to 24 weeks age, the negative effects of the prodigiosin were examined (FIG. 7). […] After their liver, kidney, and lung had been extracted from the prodigiosin-injected NOD mice, a pathological test was performed using the hematoxylinleosin staining.

[2] = test system: NOD mice; assay: Blood glucose of NOD mice (plasma, blood biochemical analyzer); settings: prodigiosin-injected NOD mice, 10 mg/kg intraperitoneally
Experimental: FIG. 3 illustrates decrease of the blood glucose by administration of prodigiosin. After we isolated plasma from NOD mouse, the blood glucose was measured with the blood biochemical analyzer (Cibacorning, USA).
Prodigiosin was intraperitoneally injected in 10 mg/kg from 8 weeks to 24 weeks of age, and the urine glucose was measured with uropaper (Eiken Chemical Co. Ltd., Japan) every week. In control group of NOD mice, not receiving prodigiosin, the urine glucose was first detected from 15 weeks of age, and at 24 weeks, 80% of the mice had the urine glucose detected (FIG. 2). […] Average blood glucose of non-prodigiosin-injected NOD mice was 500 mg/dl, which means diabetes mellitus crisis, and that of prodigiosin-injected NOD mice was 100 mg/dl, which means the normal condition (FIG. 3).

[3] = test system: NOD mice; assay: Insulitis: lymphocyte infiltration into pancreatic ducts, hematoxylin/eosin staining; settings: prodigiosin-injected NOD mice
Experimental: In insulin-dependent diabetes mellitus, insulitis may be induced by lymphocyte infiltration into pancreatic ducts and destruction of beta cells thereby. Macrophages and T cells are the major infiltrating lymphocytes, and these immune cells destroy beta cells. The pancreas from both the prodigiosin-injected and the non-injected NOD mice were preserved in formalin and to preparation. After the hematoxylin/eosin staining, the lymphocyte infiltration level was measured. 1, 2, and 3 point were respectively given to 25, 50, and 75% of insulitis progression, and the average value of insulitis progression was calculated (FIG. 4). The NOD mice, not receiving prodigiosin, had more than 2 point, or over 50% of infiltration, while the infiltration level of the prodigiosin-injected mice was about 1 point, or under 20% of infiltration.

CCCCCC1=C/C(=C/c2[nH]c(-c3ccc[nH]3)cc2OC)N=C1C [prodigiosin] was tested, and the mortality ([1]; NOD mice receiving prodigiosin) was “any mice were not found dead”, the “toxicity to kidney, liver and lung” value ([1]; NOD mice receiving prodigiosin) was “no toxicity to kidney, liver and lung” and the body weight ([1]; NOD mice receiving prodigiosin from 8 to 24 weeks of age) was “didn't decrease”. For the same molecule, the “toxicity to kidney (glomerulus and nephric tubule, pathological test)” value ([1]; NOD mice receiving prodigiosin from 8 to 24 weeks of age, hematoxylin/eosin staining) was “no toxicity to kidney”, the average blood glucose [2] was 100 mg/dL and the lymphocyte infiltration ([3]; pancreas, hematoxylin/eosin staining) was “under 20%”. The “infiltration level (average insulitis progression score)” value ([3]; 1, 2, 3 point = 25, 50, 75% insulitis progression) was “about 1 point”.

Source: patent US6638968B1, “Use of prodigiosin for treating diabetes mellitus” (Korea Research Institute of Bioscience and Biotechnology, priority 2000, dated 2003)
